Active and inactive are the calls of the source. How the calls were made is not given here.
Test system: M. tuberculosis BioA-TetON overexpression strain, growth inhibition
Test: PubChem AID 743073
Details: for IC90: IC90 growth inhibition

SMILES	IC50	IC90 [µM]
CC(C)(C)c1ccc(C(=O)N2CCN(c3ccc4c(c3)OCO4)CC2)cc1	13.1 µM	36.9
O=C(O)CC/C(=C\c1ccc([N+](=O)[O-])cc1)c1nc2ccccc2s1	8.3 µM	34.3
CC(=O)c1ccc(N2CCN(C(=O)c3ccc(C)cc3)CC2)cc1	> 50 µM (inactive)	> 50
COC(=O)c1c(C(=O)OC)c(-c2cccc(F)c2)n2c1CS(=O)C2 (stereo not given)	> 50 µM (inactive)	> 50
O=C(Nc1cccnc1)c1cc2nc(-c3cccs3)cc(C(F)(F)F)n2n1	> 50 µM (inactive)	> 50
CC(=O)c1ccc(N2CCN(C(=O)c3ccc4c(c3)OCCO4)CC2)cc1	> 50 µM (inactive)	> 50
O=C(Nc1ccccc1)N1CCN(c2ccccc2)CC1	9.9 µM	> 50
Cc1ccc(/C=C(\CCC(=O)O)c2nc3ccccc3s2)cc1[N+](=O)[O-]	1.5 µM	4.7
Cc1ccc(/C=C(\CCC(=O)O)c2nc3ccccc3s2)cc1	1.7 µM	5.8
O=C(c1ccc2c(c1)OCO2)N1CCN(c2ccc(Cl)cc2)CC1	11.6 µM	47.2
O=C(Nc1ccc(F)cc1)N1CCN(c2ccccc2)CC1	19.3 µM	> 50
O=C(c1ccc2c(c1)OCO2)N1CCN(c2ccccc2)CC1	24.4 µM	> 50
Cc1cc(C)n2nc(C(=O)Nc3cccnc3)cc2n1	> 50 µM (inactive)	> 50
CCOC(=O)N1CCN(C(=O)Nc2ccc3snnc3c2)CC1	> 50 µM (inactive)	> 50
O=C(Nc1ccc2snnc2c1)N1CCCCC1	50 µM	> 50
O=C(Nc1cccc(F)c1)N1CCN(c2ccccc2)CC1	12.8 µM	> 50
O=C(Nc1cccnc1)N1CCN(c2ccccc2)CC1	> 50 µM (inactive)	> 50
CC(=O)c1ccc(N2CCN(Cc3ccc4c(c3)OCO4)CC2)cc1	> 50 µM (inactive)	> 50
COc1cccc(NC(=O)N2CCN(c3ccccc3)CC2)c1	50 µM	> 50
O=C(Nc1ccc(Cl)cc1)c1cc2nc(C3CC3)cc(C(F)(F)F)n2n1	> 50 µM (inactive)	> 50

SMILES	IC50	IC90 [µM]
CC(=O)c1ccc(N2CCN(C(=O)c3cccc(Cl)c3)CC2)cc1	44.3 µM (inactive)	> 50
O=C(c1ccc2c(c1)OCO2)N1CCN(Cc2ccccc2)CC1	> 50 µM (inactive)	> 50
O=C(COc1ccc2ccc(=O)oc2c1)N1CCN(c2ccc(F)cc2)CC1	> 50 µM (inactive)	> 50
O=C(Nc1ccc2snnc2c1)N1CCOCC1	> 50 µM (inactive)	> 50
COc1ccc(NC(=O)N2CCN(c3ccccc3)CC2)cc1	> 50 µM (inactive)	> 50
COc1ccc(C(=O)N2CCN(c3ccc(C(C)=O)cc3)CC2)cc1	> 50 µM (inactive)	> 50
O=C(Nc1ccc(Cl)c(-c2nc3ccccc3[nH]2)c1)c1cccnc1	10.3 µM	39.5
O=C(c1ccc2c(c1)OCO2)N1CCN(c2ccc(F)cc2)CC1	28.3 µM	> 50
Cc1ccc(NC(=O)N2CCN(c3ccccc3)CC2)cc1	50 µM	> 50
Cc1ccc(-c2cc(C(F)(F)F)n3nc(C(=O)Nc4cccnc4)cc3n2)cc1	> 50 µM (inactive)	> 50
Cc1nc2cc(NC(=O)N3CCN(c4ccccc4)CC3)ccc2o1	50 µM	> 50
Cc1nc2ccc(NC(=O)N3CCN(c4ccccc4)CC3)cc2s1	2.8 µM	23.6
COc1cc(/C=C/C(=O)Nc2cccnc2)cc(OC)c1OC	> 50 µM (inactive)	> 50
CCc1ccc(C(=O)N2CCN(Cc3ccc4c(c3)OCO4)CC2)cc1	11.2 µM	47.2
O=C(Nc1cccc(Cl)c1)N1CCN(c2ccccc2)CC1	25.4 µM	> 50
O=C(Nc1cccnc1)c1cnn2c(C(F)F)cc(C3CC3)nc12	> 50 µM (inactive)	> 50
COc1cccc(C(=O)N2CCN(c3ccc(C(C)=O)cc3)CC2)c1	> 50 µM (inactive)	> 50
CC(=O)c1ccc(N2CCN(C(=O)c3ccc(Br)cc3)CC2)c(F)c1	> 50 µM (inactive)	> 50
O=C(O)CC/C(=C\c1ccccc1[N+](=O)[O-])c1nc2ccccc2s1	> 50 µM (inactive)	> 50
CC(=O)c1ccc(N2CCN(C(=O)c3ccc(F)cc3)CC2)cc1	> 50 µM (inactive)	> 50

SMILES	IC50	IC90 [µM]
CCc1ccc(N2CCN(C(=O)c3ccc4c(c3)OCO4)CC2)cc1	16.1 µM	> 50
Cc1ccc(/C=C(\CC(=O)O)c2nc3ccccc3s2)cc1[N+](=O)[O-]	11.7 µM	> 50
COc1cccc(NC(=O)CCC2CCN(C(=O)c3ccc(C(C)=O)s3)CC2)c1	> 50 µM (inactive)	> 50
O=C(Nc1cccnc1)c1cnn2c(C(F)(F)F)cc(-c3ccccc3)nc12	> 50 µM (inactive)	> 50
O=C(Nc1ccc2snnc2c1)N1CCN(c2ccccc2)CC1	> 50 µM (inactive)	> 50
CC(=O)c1ccc(N2CCN(C(=O)c3ccc(Cl)cc3)CC2)cc1	> 50 µM (inactive)	> 50
CCN(CC)c1ccc2cc(C(=O)c3cccs3)c(=O)oc2c1	6.4 µM	> 50
COc1ccc(-c2cc(C(F)(F)F)n3nc(C(=O)Nc4cccnc4)cc3n2)cc1	> 50 µM (inactive)	> 50
Cc1cc(C)n2nc(C(=O)Nc3cccnc3)nc2n1	> 50 µM (inactive)	> 50
Cc1cccc(/C=C(\CCC(=O)O)c2nc3ccccc3s2)c1	3.1 µM	9
CC(=O)c1ccc(N2CCN(C(=O)c3ccccc3)CC2)cc1	> 50 µM (inactive)	> 50
CC(=O)c1ccc(N2CCN(C(=O)c3cccnc3)CC2)cc1	> 50 µM (inactive)	> 50
Cc1ccccc1/C=C(\CCC(=O)O)c1nc2ccccc2s1	6.5 µM	43.5
Cc1ccc(/C=C(\CCCC(=O)O)c2nc3ccccc3s2)cc1[N+](=O)[O-]	5.6 µM	> 50
O=C(Nc1ccc2[nH]ccc2c1)N1CCN(c2ccccc2)CC1	7 µM	> 50
COc1ccc(N2CCN(C(=O)c3ccc4c(c3)OCO4)CC2)cc1	17.6 µM	> 50
CC(=O)c1ccc(N2CCN(C(=O)c3ccc4c(c3)OCO4)CC2)cc1	52 µM (inactive)	> 50
CC(=O)c1ccc(N2CCN(C(=O)c3cccc(F)c3)CC2)cc1	> 50 µM (inactive)	> 50
O=C(Nc1ccncc1)c1cc2nc(C3CC3)cc(C(F)F)n2n1	> 50 µM (inactive)	> 50
CC(=O)c1ccc(N2CCN(C(=O)c3ccc4ncsc4c3)CC2)cc1	> 50 µM (inactive)	> 50

Source: PubChem BioAssay AID743073 (Broad Institute, 2013)
